For experiment [1], the target named is T1, Tyrosine-protein phosphatase non-receptor type 1 (Homo sapiens) (UniProt P18031).
T1 sequence (whole entry): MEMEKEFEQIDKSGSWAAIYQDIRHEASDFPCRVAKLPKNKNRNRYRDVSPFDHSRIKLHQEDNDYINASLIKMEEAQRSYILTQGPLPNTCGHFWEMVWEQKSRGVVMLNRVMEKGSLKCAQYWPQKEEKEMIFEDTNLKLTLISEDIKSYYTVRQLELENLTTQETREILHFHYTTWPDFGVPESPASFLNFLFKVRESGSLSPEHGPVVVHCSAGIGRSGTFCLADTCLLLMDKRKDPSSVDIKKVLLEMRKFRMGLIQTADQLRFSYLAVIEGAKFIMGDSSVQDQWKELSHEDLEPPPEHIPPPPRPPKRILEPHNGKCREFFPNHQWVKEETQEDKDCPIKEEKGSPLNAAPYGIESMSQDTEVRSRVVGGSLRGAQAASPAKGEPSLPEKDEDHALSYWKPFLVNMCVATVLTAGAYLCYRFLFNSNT
Description: Inhibition of wild type human HIS6-tagged PTP1B (1 to 400 residues) expressed in Escherichia coli Rosetta (DE3) pLysS cells using p-NPP substrate at 0.38 to 1 mM preincubated for 10 mins followed dby substrate addition and measured after 20 mins relative to control. The conditions noted are these: dose mM 0.38-1, time 30.0 min.

The target in experiment [2] is T1, Tyrosine-protein phosphatase non-receptor type 1 (Homo sapiens). Description: Binding affinity to human PTP1B (1 to 405 residues) at 1:2 protein-ligand ratio.
A short description of experiment [3]: Inhibition of Saccharomyces cerevisiae alpha-glucosidase using pNPG as substrate preincubated for 10 mins followed by substrate addition after 20 mins.
The target in experiment [4] is T1, Tyrosine-protein phosphatase non-receptor type 1 (Homo sapiens).
Description: Binding affinity to wild type human HIS6-tagged PTP1B (1 to 400 residues) expressed in Escherichia coli Rosetta (DE3) pLysS by tryptophan-tyrosine residues based spectrometric method

Activity calls are given as the source filed them. The calls are words filed in the database; no cut-off is given here.

A word on the inhibition: it is the drop in the measured response relative to a control, in per cent. One may read the IC50 as the concentration needed to halve the response being measured. Low values mean inhibition by little substance, high ones a need for much substance.

Consider `CC(=O)O[C@H]1CC2=C(/C=C\C=C\[C@@]3(C)C[C@H](c4ccoc4)OC(=O)[C@@H]13)C(=O)OC2`, for which the inhibition entry in experiment [1] was “Active”.

Consider `CC(C)[C@@H](CC[C@@H](C)[C@H]1CC[C@H]2[C@@H]3[C@H](O)C[C@H]4C[C@@H](NCCCNCCCCNCCCN)CC[C@]4(C)[C@H]3CC[C@]12C)OS(=O)(=O)O`, for which the Ka in experiment [2] was 3.3 10^5/M.

`C[C@H]1[C@H](C)CC[C@]2(C(=O)O)CC[C@]3(C)C(=CC[C@@H]4[C@@]5(C)CC[C@H](O)C(C)(C)[C@@H]5CC[C@]43C)[C@H]12` [URSOLIC ACID]: the inhibition in experiment [1] stood at 50%. The molecule further had an IC50 in experiment [3] of 7.5 µM. Besides, the Ka in experiment [4] is 1.3 10^4/M.
